How the values were obtained:
[1] = Research of pharmacokinetic properties in SD rats (bioavailability); type: in vivo; conditions: male SD rats; 1 mg/kg intravenous injection, 5 mg/kg by gavage
Experimental: Research of Pharmacokinetic Properties in SD Rats
This example was intended to evaluate the PK properties of test compound, and calculate the bioavailability in male SD rats. Each test compound used six male SD rats, Six male SD rats were randomly divided into two groups. Three rats were respectively administrated with the dose of 1 mg/kg by intravenous injection; the whole blood was collected at 0.0833, 0.25, 0.5, 1, 2, 4, 6, 8 and 24 h after administration and plasma samples were prepared. The other three rats were respectively administrated with the dose of 5 mg/kg by gavage, the whole blood was collected at 0.25, 0.5, 1, 2, 4, 6, 8 and 24 h after administration, and plasma samples were prepared. the concentration of the test compound in the plasma was tested by LC/MS/MS method, and relevant PK parameters was calculated with Phoenix WinNonlin 6.2.1.
For the bioavailability data, see table 2.

PCSK9 = PCSK9 (Homo sapiens (Human), UniProt Q8NBP7); experiment: In vitro screening experiment (AlphaLISA anti-PCSK9, PCSK9-Huh7 cells); type: cell-based; conditions: 20 h incubation, AlphaLISA reading
Experimental: 1) Preparation of 1× AlphaLISA test buffer solution:
2.5 ml of 10× AlphaLISA test buffer solution was added to 22.5 ml of Milli-Q water to produce the 1× AlphaLISA test buffer solution.
50 μL of 5 mg/mL Alpha LISA Anti-PCSK9 Acceptor beads and 50 μL of 500 nM Biotinylated Antibody Anti-PCSK9 were added to 9,900 μL of 1× AlphaLISA test buffer solution.
3) Preparation of 2× Streptavidin (SA) Donor beads (80 μg/mL):
200 μL of 5 mg/mL SA-Donor beads was added to 12,300 μL of 1× AlphaLISA test buffer solution.
3) 20 μL/pore mixture of 2.5× AlphaLISA Acceptor beads and Biotinylated Antibody Anti-PCSK9 was added, and incubated at 23° C. for 60 min.
4) 25 μL/pore 2× Streptavidin (SA) Donor beads were added; and incubated for 30 min at 23° C. (kept in dark place).
5) EnVision-Alpha Reader reading:
Date was analyzed with Prismsoftware (nonlinear regression (Sigmoidal dose-response-variable slope) Inhibition ratio %=100*(Sample reading−LC reading)/(HC reading−LC reading) Computational formula: […]

SMILES | F in rats (%) [1] [%] | IC50 (PCSK9) [µM]
O=C(c1ccc(-n2nnc3cccnc32)cc1)N(c1ncccc1Cl)[C@@H]1CCCNC1 [PF-06446846, reference compound] | 20 | 
CC1(C)ON=C(c2ccc(C(=O)N(c3ncccc3Cl)[C@@H]3CCCNC3)cc2)C1=O [WX001] | 83.9 | < 10
Cc1cccnc1N(C(=O)c1ccc(C2=NOC(C)(C)C2=O)cc1)[C@@H]1CCCNC1 [WX002] | 68.0 | < 10
CC1(C)ON=C(c2ccc(C(=O)N(c3ccccn3)[C@@H]3CCCNC3)cc2)C1=O [WX006] |  | < 10
Cc1cc(F)cnc1N(C(=O)c1ccc(C2=NOC(C)(C)C2=O)cc1)[C@@H]1CCCNC1 [WX008] |  | < 10
COc1cccnc1N(C(=O)c1ccc(C2=NOC(C)(C)C2=O)cc1)[C@@H]1CCCNC1 [WX009] |  | < 10
Cc1cc(Cl)cnc1N(C(=O)c1ccc(C2=NOC(C)(C)C2=O)cc1)[C@@H]1CCCNC1 [WX011] |  | < 10
Cc1cnc(N(C(=O)c2ccc(C3=NOC(C)(C)C3=O)cc2)[C@@H]2CCCNC2)c(C)c1 [WX012] |  | < 10
CC1(C)ON=C(c2ccc(C(=O)N(c3ncccc3F)[C@@H]3CCCNC3)cc2)C1=O [WX013] |  | < 10
Cc1ccnc(N(C(=O)c2ccc(C3=NOC(C)(C)C3=O)cc2)[C@@H]2CCCNC2)c1Cl [WX015] |  | < 10
Cc1cc(C2=NOC(C)(C)C2=O)ccc1C(=O)N(c1ncccc1Cl)[C@@H]1CCCNC1 [WX021] | 37.7 | < 10
Cc1cc(C(=O)N(c2ncccc2Cl)[C@@H]2CCCNC2)ccc1C1=NOC(C)(C)C1=O [WX022] |  | < 10
Cc1cc(C2=NOC(C)(C)C2=O)ccc1C(=O)N(c1ncccc1C)[C@@H]1CCCNC1 [WX023] |  | < 10
Cc1cc(C(=O)N(c2ncccc2C)[C@@H]2CCCNC2)ccc1C1=NOC(C)(C)C1=O [WX024] |  | < 10
Cc1cccnc1N(C(=O)c1ccc(C2=NOC(C)(C)C2O)cc1)[C@@H]1CCCNC1 (stereo partly drawn) [WX025] |  | < 10
CC1(C)ON=C(c2ccc(C(=O)N(c3nccc4c3COC4)[C@@H]3CCCNC3)cc2)C1=O [WX026] |  | < 10
Cc1cccnc1N(C(=O)c1ccc(C2=NOC(C)(C)C2=O)cc1F)[C@@H]1CCCNC1 [WX027] | 58.8 | < 10
CC1(C)ON=C(c2ccc(C(=O)N(c3ncccc3-c3ccncc3)[C@@H]3CCCNC3)cc2)C1=O [WX037] |  | < 10
CC1(C)ON=C(c2ccc(C(=O)N(c3ncccc3-c3ccccc3)[C@@H]3CCCNC3)cc2)C1=O [WX038] |  | < 10
Cc1cccnc1N(C(=O)c1ccc(C2=NOC(C)(C)/C2=N\O)cc1)[C@@H]1CCCNC1 [WX039] |  | < 10
CO/N=C1/C(c2ccc(C(=O)N(c3ncccc3C)[C@@H]3CCCNC3)cc2)=NOC1(C)C [WX040] | 56.3 | < 10
COCc1cccnc1N(C(=O)c1ccc(C2=NOC(C)(C)C2=O)cc1)[C@@H]1CCCNC1 [WX041] |  | < 10
